Laboratory results taken from article PMC6891762, “Novel Isoxazolidine and γ-Lactam Analogues of Homonucleosides” (Molecules, 2019).
Converted amounts (≈) assume the structure as drawn.

How the values were obtained:
herpes simplex virus = details: ref [19],[20],[21]; cited from earlier work
vaccinia virus = details: ref [19],[20],[21]; cited from earlier work
[1] = design: method as in PMID 12904074, PMID 20394405, PMID 15743182, PMID 17580846, PMID 17967914; details: ref [34],[35],[36],[37],[38]; read-out: 50% cytotoxic concentration (CC50); cited from earlier work
[2] = test system: reverse transcriptase activity of (AMV) and human immunodeficiency virus (HIV); details: ref [34],[35],[36],[37],[38]; cited from earlier work
human enzymes (UDG) = test system: human enzymes (UDG); design: method as in PMID 11084051; details: ref [23]; cited from earlier work
[3] = test system: viral uracil-DNA glycosylase (UDG); design: method as in PMID 11084051; details: ref [23]; cited from earlier work
[4] = test system: influenza type virus AH1N1; design: method as in PMID 23225323; details: ref [22]; cited from earlier work
[5] = test system: NCI-H460 (lung carcinoma) cells; assay: Cytostatic activity, NCI-H460; type: cell-based; details: concentration causing 50% decrease in cell proliferation
Experimental: (§1) The 50% cytostatic inhibitory concentration (IC50) causing a 50% decrease in cell proliferation was determined for all isolated isoxazolidines 14 and γ-lactams 15 toward nine cancerous cell lines (Capan-1 (pancreatic adenocarcinoma), Hap1 (chronic myeloid leukemia), HCT-116 (colorectal carcinoma), NCI-H460 (lung carcinoma), DND-41 (acute lymphoblastic leukemia), HL-60 (acute myeloid leukemia), K-562 (chronic myeloid leukemia), MM.1S (multiple myeloma) and Z-138 (non-Hodgkin lymphoma)) and normal retina (non-cancerous) cells (hTERT RPE-1). Docetaxel, etoposide and stauroporine were used as the reference compounds.
(§2) All assays were performed in 96-well microtiter plates. To each well was added (5−7.5) × 10^4 tumor cells and a given amount of the test compound. The cells were allowed to proliferate at 37 °C in a humidified, CO2-controlled atmosphere. At the end of the incubation period, the cells were counted in a Coulter counter. The IC50 (50% inhibitory concentration) was defined as the concentration of the compound that inhibited cell proliferation by 50%.

[6] = test system: Hap1 (chronic myeloid leukemia) cells; assay: Cytostatic activity, Hap1; type: cell-based; details: concentration causing 50% decrease in cell proliferation
Experimental: as §1, §2

[7] = test system: Capan-1 (pancreatic adenocarcinoma) cells; assay: Cytostatic activity, Capan-1; type: cell-based
Experimental: as §1, with “RPE-1).” for “RPE-1). Docetaxel, etoposide and stauroporine were used as the reference compounds.”
as §2, with “counter.” for “counter. The IC50 (50% inhibitory concentration) was defined as the concentration of the compound that inhibited cell proliferation by 50%.”

[8] = test system: hTERT RPE-1 normal retina (non-cancerous) cells; assay: Cytostatic activity, normal retina cells; type: cell-based; details: concentration causing 50% decrease in cell proliferation
Experimental: as §1, §2

[9] = test system: HCT-116 (colorectal carcinoma) cells; assay: Cytostatic activity, HCT-116; type: cell-based; details: concentration causing 50% decrease in cell proliferation
Experimental: as §1, §2

[10] = Homo sapiens, CAPAN-1, concentration causing 50% decrease in cell proliferation
[11] = concentration causing 50% decrease in cell proliferation

Nc1ncnc2c1ncn2C[C@H]1C[C@H](O)[C@@H](CO)O1 [Compound 1]
minimum inhibitory concentration (MIC) (herpes simplex virus): 5 to 20 µg/mL | activity against vaccinia virus (vaccinia virus): active

Cc1cn([C@H]2C[C@H](N=[N+]=[N-])[C@@H](CO)O2)c(=O)[nH]c1=O [AZT, azidothymidine]
CC50 [1]: 12.1 µM | level of inhibition of reverse transcriptase activity [2]: 10 nM

Nc1nc2c(ncn2C[C@H]2C[C@H](O)[C@@H](CO)O2)c(=O)[nH]1 [Compound 2]
minimum inhibitory concentration (MIC) (herpes simplex virus): 5 to 20 µg/mL | activity against vaccinia virus (vaccinia virus): active

O=c1ccn(C[C@H]2C[C@H](O)[C@@H](CO)O2)c(=O)[nH]1 [Compound 4]
effect on the human enzymes (human enzymes (UDG)): only small effect | inhibition of viral uracil-DNA glycosylase (UDG) [3]: selective inhibitor

O=c1[nH]cnc2c1ncn2C[C@H]1C[C@H](O)[C@@H](CO)O1 [Compound 3]
IC50 [4]: 25.2 µg/mL (≈ 94.6 µM)

CN1C(=O)[C@@H](O)C[C@@H]1Cn1cnc2c(N)ncnc21 (relative stereo) [trans-15i, trans-5-[(6-Amino-9H-purin-9-yl)methyl]-3-hydroxy-1-methylpyrrolidin-2-one]
IC50 ([5]; Homo sapiens, NCI-H460): 54.7 µM | IC50 ([6]; Homo sapiens, HAP1): 47.8 µM | IC50 [7, 10]: 53.7 µM | IC50 ([8]; hTERT-RPE1): > 100 µM | IC50 ([9]; Homo sapiens, HCT-116): 65.7 µM

CN1C(=O)[C@@H](O)C[C@@H]1Cn1cc(Cl)c(=O)[nH]c1=O (relative stereo) [trans-15e, trans-5-Chloro-1-[(4-hydroxy-1-methyl-5-oxopyrrolidin-2-yl)methyl]pyrimidine-2,4(1H,3H)-dione]
IC50 ([5]; Homo sapiens, NCI-H460): 47.7 µM | IC50 ([6]; Homo sapiens, HAP1): 54.5 µM | IC50 [7, 10]: 21.5 µM | IC50 [7, 11]: 18.2 µM | IC50 ([8]; hTERT-RPE1): > 100 µM | IC50 ([9]; Homo sapiens, HCT-116): > 100 µM

COC(=O)[C@@H]1C[C@H](Cn2cnc3c(=O)n(C)c(=O)n(C)c32)N(C)O1 (relative stereo) [cis-14h, Methyl cis-3-[(1,3-dimethyl-2,6-dioxo-1,2,3,6-tetrahydro-9H-purin-9-yl)methyl]-2-methylisoxazolidine-5-carboxylate]
IC50 ([5]; Homo sapiens, NCI-H460): 33.2 µM | IC50 ([6]; Homo sapiens, HAP1): 45.1 µM | IC50 [7, 10]: 62.2 µM | IC50 ([8]; hTERT-RPE1): > 100 µM | IC50 ([9]; Homo sapiens, HCT-116): 49 µM

COC(=O)[C@H]1C[C@H](Cn2ccc(=O)[nH]c2=O)N(C)O1 (relative stereo) [trans-14a, Methyl trans-3-{[2,4-dioxo-3,4–dihydropyrimidin-1(2H)-yl]methyl}-2-methylisoxazolidine-5-carboxylate]
IC50 ([5]; Homo sapiens, NCI-H460): 90.3 µM | IC50 ([6]; Homo sapiens, HAP1): > 100 µM | IC50 [7, 10]: 62.6 µM | IC50 ([8]; hTERT-RPE1): > 100 µM | IC50 ([9]; Homo sapiens, HCT-116): > 100 µM

COC(=O)[C@@H]1C[C@H](Cn2cc(Br)c(=O)[nH]c2=O)N(C)O1 (relative stereo) [cis-14d, Methyl cis-3-{[5-bromo-2,4-dioxo-3,4–dihydropyrimidin-1(2H)-yl]metyl}-2-methylisoxazolidine-5-carboxylate]
IC50 [5]: 62.3 µM | IC50 [6]: > 100 µM | IC50 [7, 11]: 95 µM | IC50 [8]: > 100 µM | IC50 [9]: 86.4 µM

C[C@H](Cn1cnc2c(N)ncnc21)OCP(=O)(O)O [tenofovir]
level of inhibition of reverse transcriptase activity [2]: 1 nM

CN1C(=O)[C@@H](O)C[C@@H]1Cn1cnc2c(=O)n(C)c(=O)n(C)c21 (relative stereo) [trans-15h, trans-9-[(4-Hydroxy-1-methyl-5-oxopyrrolidin-2-yl)methyl]-1,3-dimethyl-3,9-dihydro-1H-purine-2,6-dione]
IC50 ([5]; Homo sapiens, NCI-H460): 49.8 µM | IC50 ([6]; Homo sapiens, HAP1): > 100 µM | IC50 [7, 10]: 47.2 µM | IC50 ([8]; hTERT-RPE1): > 100 µM | IC50 ([9]; Homo sapiens, HCT-116): 45.7 µM
